Read-outs that look alike come from different tables or passages of the source.
Legend:
[1] = system: p-cMyc(S62), cMyc, p-AKT(S473), AKT, p-ERK(T202/Y204), ERK; test: Target engagement Western blot in HCT116 cells; assay type: cell-based; settings: 10-80 μM, 3 hours
Procedure: For Western blot, the compounds were tested at 4 concentrations for 3 hours on 3 colon cancer cell lines. The compounds, concentrations, colon cancer cell line panel, and antibodies panel tested are the following: • CBG: 0 μM, 10 μM, 20 μM, 40 μM, and 80 μM. • Compound 1: 0 μM, 10 μM, 20 μM, 40 μM, and 80 μM. • Compound 2: 0 μM, 10 μM, 20 μM, 40 μM, and 80 μM. • Colon cancer cell line panel: SW620, HCT15, HCT116 • Antibodies panel: p-cMYC(S62), cMyc, p-AKT(S473), AKT, p-ERK(T202/Y204), ERK Methods
Evaluation of target engagement was performed to determine the expression of specific marker protein expression and underlying signaling pathways with Western blot.
Western blot. Whole cell extracts were prepared by incubating cell pellets in IP lysis buffer supplemented with protease and phosphatase inhibitors (Roche). Isolated protein was quantified by Pierce BCA Protein assay (ThermoFisher). Equal quantities of protein were separated by 4-15% SDS-PAGE electrophoresis gels and transferred onto nitrocellulose membranes. Membranes was blocked with 5% nonfat milk in Tris-buffered saline-Tween buffer. […]

[2] = system: UGT; test: UGT reaction phenotyping, all the UGTs combined; assay type: in vitro ADME, Human
Excerpt: Experimental Summary: UGT Reaction Phenotyping (7 Isoforms).

[3] = Quantification of CBG in rat brain tissue (LC-MS/MS); assay type: in vivo, Sprague-Dawley rat; settings: for concentration at 24 h: Sprague-Dawley, rat, brain, oral
Procedure: The purpose of this study was to quantify cannabigerol (CBG) in rat plasma and brain.
Seven- to nine-week-old male and female Sprague-Dawley received either a single dose or once daily dosing for 21 days of vehicle or CBG at three different dosage levels as shown in the Table below.
Approximately 0.2-0.25 mL blood was collected during the first 24 hours after the single dose, and at multiple times points after the terminal dose for the animals receiving daily dosing for 21 days. Liver, kidney, and colon samples were collected and fixed in 10% NBF for 48 hours, then stored in 70% ethanol at room temperature. Brain samples were collected and flash frozen.
Analytical curves were constructed using non-zero standards with CBG concentration ranging from 0.0025 to 2.500 μg/mL and 2.500-100.0 μg/mL in blank rat plasma samples and 1.0 to 2500 ng/mL in blank brain tissues. A blank sample was used to exclude contamination.
Instrument Used: AB SCIEX QTRAP 4500/Shimadzu Prominence LC

Row | Structure (SMILES) | pAKT(S473) (Western blot) [1] | Total UGT activity relative to that observed with CBG [2] | share of total UGT activity associated with UGT1A9 and UGT2B7 [2] | CBG concentration in rat brain tissue (Day 21) ([3]; CBG 10 mg/kg oral gavage once daily, 24 hrs post Rx) | concentration at 24 h ([3]; both sexes, 30 mg/kg, CBG 30 mg/kg oral gavage once daily, 24 hrs post Rx, read-out: CBG concentration in rat brain tissue (Day 21)) | concentration at 24 h ([3]; female, 100 mg/kg, CBG 100 mg/kg once daily, 24 hrs post Rx, female rats, read-out: CBG concentration in rat brain tissue (Day 21), Average) | concentration at 24 h ([3]; male, 100 mg/kg, CBG 100 mg/kg once daily, 24 hrs post Rx, male rats, read-out: CBG concentration in rat brain tissue (Day 21), Average) | CBG in brain (in words) ([3]; oral CBG, Day 21)
1 | CCCCCc1cc(O)c(C/C=C(\C)CCC=C(C)C)c(OC)c1 [Compound 1, (E)-2-(3,7-dimethylocta-2,6-dien-1-yl)-3-methoxy-5-pentylphenol] | down-regulated pAKT(S473) in HCT116 cells with a dose effect | 23% | 73% | – | – | – | – | –
2 | CCCCCc1cc(O)c(C/C=C(\C)CCC=C(C)C)c(O)c1 [CBG, cannabigerol] | – | – | – | BLQ (BLQ—Below Limit of Quantification (1.0 ng/g)) | 43.8 ng/g | 299 ng/g | 540 ng/g | not detected

Source: patent US11992497B2 (priority 2021, dated 2024)
